Assay [1] relates to obese female Zucker rats. As to the kind of experiment: Oral daily treatment of obese female Zucker rats for fourteen days: serum lipids, glycemic control indicators, body weight. Format: in vivo, rat. The conditions noted are these: 14 days; for Glucose, Percent Change from Pre-treatment: blood, 6-hour fast; for Glucose, Percent Change from Pre-treatment / BHA, Percent Change from Pre-treatment / NEFA, Percent Change from Pre-treatment / HDL-C/nonHDL-C / HDL-C, Percent Change from Pre-treatment / Insulin, Percent Change from Pre-treatment / Non HDL-C, Percent Change from Pre-treatment / TC, Percent Change from Pre-treatment / TG, Percent Change from Pre-treatment: oral; for % wt. gain: oral gavage; for BHA, Percent Change from Pre-treatment: serum beta hydroxy butyric acid; for NEFA, Percent Change from Pre-treatment: serum non-esterified fatty acids; for HDL-C/nonHDL-C: serum ratio; for HDL-C, Percent Change from Pre-treatment / Insulin, Percent Change from Pre-treatment / Non HDL-C, Percent Change from Pre-treatment / TC, Percent Change from Pre-treatment / TG, Percent Change from Pre-treatment: serum. The procedure:
In a number of different experiments, illustrative compounds A and A1 of the invention were administered daily at a dose of up to 100 mg/kg to chow-fed obese female Zucker rats for fourteen days in the morning by oral gavage in 1.5% carboxymethylcellulose/0.2% Tween-20 or 20% ethanol/80% polyethylene glycol (dosing vehicles). Animals were weighed daily. Animals were allowed free access to rodent chow and water throughout the study except on days of blood sampling where food was restricted for six hours prior to blood sampling. Blood glucose was determined after the 6-hour fast in the afternoon without anesthesia from a tail vein. Serum was also prepared from pretreatment blood samples subsequently obtained from the orbital venous plexus (with O2/CO2 anesthesia) and following the fourteenth dose at sacrifice from the heart following O2/CO2 anesthesia. Serums were assayed for lipoprotein cholesterol profiles, triglycerides, total cholesterol, NonHDL cholesterol, HDL cholesterol, the ratio of HDL cholesterol to that of Non-HDL cholesterol, insulin, non-esterified fatty acids, and beta hydroxy butyric acid. The percent body weight gain and the ratio of liver to body weight was also determined. These are shown as absolute values or as a percent change of the pretreatment values in Table 4. [drawing 300]

For assay [2], the system named is primary rat hepatocytes. The assay is described as follows: Inhibition of lipid synthesis ([1-14C]-acetate incorporation) in primary cultures of rat hepatocytes. Format: cell-based. The conditions noted are these: 0-300 μM. The procedure: Compounds were tested for inhibition of lipid synthesis in primary cultures of rat hepatocytes. Male Sprague-Dawley rats were anesthetized with intraperitoneal injection of sodium pentobarbital (80 mg/kg). Rat hepatocytes were isolated essentially as described by the method of Seglen (Seglen, P. O. Hepatocyte suspensions and cultures as tools in experimental carcinogenesis. J. Toxicol. Environ. Health 1979, 5, 551-560). Hepatocytes were suspended in Dulbecco's Modified Eagles Medium containing 25 mM D-glucose, 14 mM HEPES, 5 mM L-glutamine, 5 mM leucine, 5 mM alanine, 10 mM lactate, 1 mM pyruvate, 0.2% bovine serum albumin, 17.4 mM non-essential amino acids, 20% fetal bovine serum, 100 nM insulin and 20 μg/mL gentamycin) and plated at a density of 1.5×10^5 cells/cm^2 on collagen-coated 96-well plates. Four hours after plating, media was replaced with the same media without serum. Cells were grown overnight to allow formation of monolayer cultures. Lipid synthesis incubation conditions were initially assessed to ensure the linearity of [1-^14C]-acetate incorporation into hepatocyte lipids for up to 4 hours. Hepatocyte lipid synthesis inhibitory activity was assessed during incubations in the presence of 0.25 μCi [1-^14C]-acetate/well (final radiospecific activity in assay is 1 Ci/mol) and 0, 1, 3, 10, 30, 100 or 300 μM of compounds for 4 hours. At the end of the 4-hour incubation period, medium was discarded and cells were washed twice with ice-cold phosphate buffered saline and stored frozen prior to analysis. To determine total lipid synthesis, 170 μl of MicroScint-E® and 50 μl water was added to each well to extract and partition the lipid soluble products to the upper organic phase containing the scintillant. Lipid radioactivity was assessed by scintillation spectroscopy in a Packard TopCount NXT.

Setting [3] is: Rattus norvegicus, Hepatocyte, 4 h.

pIC50: −log10 of the molar value.

As for `CC(C)(CO)CCCCNC(=O)NCCCCC(C)(C)CO` [A, 1,3-bis-(6-hydroxy-5,5-dimethyl-hexyl)-urea], in assay [1] (100 mg/kg/day), the “Glucose, Percent Change from Pre-treatment” value (shortened to “Glucose, Percent Change”) is 2%; the “% wt. gain” value stood at 4%; the “BHA, Percent Change from Pre-treatment” value is on record as 172%; the “NEFA, Percent Change from Pre-treatment” value is on record as 8%. In assay [1] (100 mg/kg/day), the HDL-C/nonHDL-C came to 2.7; the “HDL-C, Percent Change from Pre-treatment” value amounted to 92%; the “Insulin, Percent Change from Pre-treatment” value (shortened to “Insulin, Percent Change”) is on record as 60%; the “Non HDL-C, Percent Change from Pre-treatment” value (shortened to “Non HDL-C, Percent Change”) is −5%. Further, in assay [1] (100 mg/kg/day), the “TC, Percent Change from Pre-treatment” value was determined as 50% and the “TG, Percent Change from Pre-treatment” value is −31%.

Usually pIC50 stands for the negative decadic logarithm of the IC50, by convention in mol/L. For the compound `CC(C)(CO)CCCCNC(=O)NCCCC(C)(C)CO` [Compound 213, 1-(5-Hydroxy-4,4-dimethylpentyl)-3-(6-hydroxy-5,5-dimethylhexyl)urea], the pIC50 in assay [2] (setting [3]) is 4.47.

`CC(C)(CO)CCCCNC(=O)NCCCc1ccccc1` [Compound 216, 1-(6-Hydroxy-5,5-dimethylhexyl)-3-(3-phenylpropyl)urea]: the pIC50 in assay [2] (setting [3]) is 4.29.

For the compound `CC(C)(CO)CCCCNC(=O)NCCCCc1ccccc1` [Compound 217, 1-(6-Hydroxy-5,5-dimethylhexyl)-3-(4-phenylbutyl)urea], the pIC50 in assay [2] (setting [3]) is 3.66. This pIC50 is 0.63 log units lower than that of the compound before.

As to `CCOC(=O)CCCCCNC(=O)NCCCCC(C)(C)CO` [Compound 219, Ethyl 6-(3-(6-hydroxy-5,5-dimethylhexyl)ureido)hexanoate], the pIC50 in assay [2] (setting [3]) was 4.09. Against the preceding compound, the pIC50 is 0.43 log units higher.

Compound `CC(C)(CO)CCCCNC(=O)NCCCCC(C)(CO)c1ccccc1` (centres unmarked) [Compound 220, 1-(6-Hydroxy-5,5-dimethylhexyl)-3-(6-hydroxy-5-methyl-5-phenylhexyl)urea] showed a pIC50 in assay [2] (setting [3]) of 5.06. This pIC50 is 0.97 log units higher than that of the compound before.

`CC(CO)(CCCCNC(=O)NCCc1ccccc1)c1ccccc1` (centres unmarked) [Compound 222, 1-(6-Hydroxy-5-methyl-5-phenylhexyl)-3-phenethylurea] showed a pIC50 in assay [2] (setting [3]) of 3.58.

Regarding `CC(CO)(CCCCNC(=O)NCCCc1ccccc1)c1ccccc1` (centres unmarked) [Compound 223, 1-(6-Hydroxy-5-methyl-5-phenylhexyl)-3-(3-phenylpropyl)urea], the pIC50 is 4.11 in assay [2] (4 hours) and 3.86 in assay [2] (setting [3]).

For the compound `CCOC(=O)CCCCCNC(=O)NCCCCC(C)(CO)c1ccccc1` (centres unmarked) [Compound 225, Ethyl 6-(3-(6-hydroxy-5-methyl-5-phenylhexyl)ureido)hexanoate], the negative-log IC50 (pIC50) in assay [2] (setting [3]) is 3.89.

Take `CC(CO)(CCCCCNC(=O)NCCCCC(C)(CO)c1ccccc1)c1ccccc1` (centres unmarked) [Compound 226, 1-(6-Hydroxy-5-methyl-5-phenylhexyl)-3-(7-hydroxy-6-methyl-6-phenylheptyl)urea]: the pIC50 in assay [2] (setting [3]) is 4.06.

In assay [2] (setting [3]), `CC(CO)(CCCCCNC(=O)NCCc1ccccc1)c1ccccc1` (centres unmarked) [Compound 227, 1-(7-Hydroxy-6-methyl-6-phenylheptyl)-3-phenethylurea] gave a pIC50 of 3.65. This pIC50 is 0.41 log units lower than that of the compound before.

Compound `CC(CO)(CCCCCNC(=O)NCCCc1ccccc1)c1ccccc1` (centres unmarked) [Compound 228, 1-(7-hydroxy-6-methyl-6-phenylheptyl)-3-(3-phenylpropyl)urea] gave a pIC50 in assay [2] (setting [3]) of 4.00.

For the compound `COC(=O)CCCNC(=O)NCCCCCC(C)(CO)c1ccccc1` (centres unmarked) [Compound 230], the pIC50 in assay [2] (setting [3]) is 3.99.

`CC(CO)(CCCCCNC(=O)NCCCCCC(C)(CO)c1ccccc1)c1ccccc1` (centres unmarked) [Compound 231, 1,3-Bis(7-hydroxy-6-methyl-6-phenylheptyl)urea] had a pIC50 in assay [2] (setting [3]) of 4.41. Against the preceding compound, the pIC50 is 0.42 log units higher.

Turning to `CC(C)(CO)CCCCNC(=S)NCCCCC(C)(C)CO` [Compound A1, 1,3-bis-(6-hydroxy-5,5-dimethylhexyl)-thiourea], in assay [1] (30 mg/kg/day), the “Glucose, Percent Change” value is listed as −4%; the “% wt. gain” value worked out at 10%; the “BHA, Percent Change from Pre-treatment” value is listed as 283%; the “NEFA, Percent Change from Pre-treatment” value was determined as 11%. Moreover, in assay [1] (30 mg/kg/day), the HDL-C/nonHDL-C worked out at 2.0; the “HDL-C, Percent Change from Pre-treatment” value was −11%; the “Insulin, Percent Change” value was −29%; the “Non HDL-C, Percent Change” value came to 32%. Also, in assay [1] (30 mg/kg/day), the “TC, Percent Change from Pre-treatment” value was −9% and the “TG, Percent Change from Pre-treatment” value is 7%. Further, in assay [1] (100 mg/kg/day), the “Glucose, Percent Change” value is −15%; the “% wt. gain” value came out at 7%; the “BHA, Percent Change from Pre-treatment” value is 305%; the “NEFA, Percent Change from Pre-treatment” value turned out to be 34%. For the same compound, in assay [1] (100 mg/kg/day), the HDL-C/nonHDL-C is 1.3; the “HDL-C, Percent Change from Pre-treatment” value was 2%; the “Insulin, Percent Change” value is listed as 10%; the “Non HDL-C, Percent Change” value was −29%. In addition, in assay [1] (100 mg/kg/day), the “TC, Percent Change from Pre-treatment” value is reported as −7% and the “TG, Percent Change from Pre-treatment” value is −15%.

(Values after patent US20050192347A1, “Urea and thiourea compounds and compositions for cholesterol management and related uses” (priority 2003, published 2005).)
